Reference: patent publication US20040110768A1, “Bombesin receptor antagonists” (priority 2000, published 2004)
Where a name gives a salt, the structure may show the parent alone.

What was measured:
[1] = tested on: Ovariectomised adult female Sprague Dawley rats; test: Female rat sexual receptivity test (lordosis quotient); assay type: in vivo
Experimental: Ovariectomised adult female Sprague Dawley rats (180-200 g) were housed in groups of 6 in a reversed lighting system of 12 h light:dark (lights off 7.00-19.00 h). Two weeks after ovariectomy they were used for sexual activity tests. The experiments started at least 5 h into the dark period. Compound (1) was dissolved in PEG 200 vehicle and administered orally. Quinelorane dihydrochloride (LY 163,502, 6.25 μg/kg) was dissolved in water and administered s.c., as a positive control. Both compounds were administered in a 1-ml/kg volume. Forty eight hours before tests, the animals were primed with 5 μg oestradiol benzoate dissolved in corn oil and injected s.c. The females were placed with a series of vigorous male rats and subjected to 10 mounts. The lordotic response of the animal was recorded and expressed as a percentage of the mounts (i.e. lordosis quotient, LQ). […] Animals showing higher LQ were not included in the study. Each rat was tested prior to administration of the compound (1) and then tested similarly at 1 h and at 90 min post-injection of compound (1) or quinelorane respectively.

[2] = tested on: Ovariectomised adult female Sprague Dawley rats; test: Female rat sexual proceptivity test; assay type: in vivo; details: for difference in the percentage of time spent investigating the male stimuli minus female stimuli / MED, difference in percentage of time spent investigating male minus female stimuli: 1 h before test
Experimental: Ovariectomised adult female Sprague Dawley rats (180-200 g) were housed in groups of 6 in a reversed lighting system of 12 h light:dark (lights off 7.00-19.00 h). Two weeks after ovariectomy they were used for sexual activity tests. Animals were Adapted to the apparatus (in the absence of stimuli animals) for 10 min on 2 Consecutive days prior to testing. The experiments started at least 5 h into the dark period. Tests were carried out in a circular arena of 90 cm diameter, surrounded by a 30 cm high wall. Two small cages with wire-mesh front (15×15 cm) are fixed into the wall such that the front of the cage is “flush” with the wall and the 2 cages are opposite each other. They contain two stimuli animals: an intact sexually experienced male and a receptive female (ovariectomised, primed with 5 μg oestradiol benzoate dissolved in corn oil and injected subcutaneously 48 h before the test and with 0.5 mg of progesterone 4 h before the test). Sexually naïve test and control animals were used. Forty eight hours before the tests, both the test and control animals were primed with 5 μg oestradiol benzoate. Test animals were treated with the above compound (1)(30-100 mg/kg) which was dissolved in PEG 200 vehicle and administered orally in a 1 ml/kg volume 1 h before each test. For animals used as positive controls, progesterone (0.5 mg/0.1 ml) was dissolved in corn oil and administered subcutaneously (s.c.), 4 h before the test. Test and control animals were introduced one at a time for 10-minute periods into the arena. During the 10-min test, the time that the test or positive control animal spent investigating each stimulus animal was noted. The arena was thoroughly cleaned between animals. The position of the male/female stimuli boxes was randomised between animals, in order to avoid place preference. The difference in the percentage of time spent investigating male minus female was calculated, out of the total time spent investigating stimuli animals.
Example 21 was repeated except that compound (1) (3-30 mg/kg) was dissolved in 0.5% methyl cellulose and was administered p.o. in a dosing volume of 3 ml/kg 1 h before tests. Progesterone (0.5 mg/0.1 ml) was dissolved in corn oil and administered s.c., 4 h before test, as a positive control.

Row | SMILES | melting point [°C] | further results
1 | COc1ccc(C2(CNC(=O)[C@](C)(Cc3c[nH]c4ccccc34)Nc3nc(-c4ccc([N+](=O)[O-])cc4)co3)CCCCC2)nc1 [Example 1, (S)-3-(1H-Indol-3-yl)-N-[1-(5-methoxy-pyridin-2-yl)-cyclohexylmethyl]-2-methyl-2-[4-(4-nitro-phenyl)-oxazol-2-ylamino]-propionamide] | 100 to 105 | lordosis quotient (LQ) versus before administration ([1]; PEG 200, single oral administration, 10-100 mg/kg, 1 h after administration): increased; difference in the percentage of time spent investigating the male stimuli minus female stimuli ([2]; 0.5% methyl cellulose, p.o., 3-30 mg/kg): increased; MED, difference in percentage of time spent investigating male minus female stimuli ([2]; 0.5% methyl cellulose, p.o.): 10 mg/kg; difference in the percentage of time spent investigating the male stimuli minus female stimuli ([2]; PEG 200 vehicle, oral, 30-100 mg/kg): increased; MED, difference in percentage of time spent investigating male minus female stimuli ([2]; PEG 200 vehicle, oral): 100 mg/kg; increase in potency in methyl cellulose compared to PEG 200 vehicle ([2]; oral, MED 10 vs 100 mg/kg): 10 fold
2 | COCC1(CNC(=O)[C@](C)(Cc2c[nH]c3ccccc23)Nc2nc(-c3ccc([N+](=O)[O-])cc3)co2)CCCCC1 [Example 2, (S)-3-(1H-Indol-3-yl)-N-(1-methoxymethyl-cyclohexylmethyl)-2-methyl-2-[4-(4-nitro-phenyl)-oxazol-2-ylamino]-propionamide] | 189 to 192 | –
3 | C[C@@](Cc1c[nH]c2ccccc12)(Nc1nc(-c2ccc([N+](=O)[O-])cc2)co1)C(=O)NCC(=O)c1ccccc1 [Example 3, (S)-3-(1H-Indol-3-yl)-2-methyl-2-[4-(4-nitro-phenyl)-oxazol-2-ylamino]-N-(2-oxo-2-phenyl-ethyl)-propionamide] | 80 to 90 | –
4 | COc1ccc(C2(CNC(=O)[C@](C)(Cc3c[nH]c4ccccc34)Nc3nc(-c4ccc(C#N)cc4)co3)CCCCC2)nc1 [Example 5, (S)-2-[4-(4-Cyano-phenyl)-oxazol-2-ylamino]-3-(1H-indol-3-yl)-N-[1-(5-methoxy-pyridin-2-yl)-cyclohexylmethyl]-2-methyl-propionamide] | 105 to 108 | –
5 | COc1ccc(C2(CNC(=O)[C@](C)(Cc3c[nH]c4ccccc34)Nc3nc(-c4ccccc4)co3)CCCCC2)nc1 [Example 6, (S)-3-(1H-Indol-3-yl)-N-[1-(5-methoxy-pyridin-2-yl)-cyclohexylmethyl]-2-methyl-2-(4-phenyl-oxazol-2-ylamino)-propionamide] | 85 to 90 | –
6 | CCc1coc(N[C@@](C)(Cc2c[nH]c3ccccc23)C(=O)NCC2(c3ccc(OC)cn3)CCCCC2)n1 [Example 7, (S)-2-(4-Ethyl-oxazol-2-ylamino)-3-(1H-indol-3-yl)-N-[1-(5-methoxy-pyridin-2-yl)-cyclohexylmethyl]-2-methyl-propionamide] | 60 to 65 | –
7 | COc1ccc(C2(CNC(=O)[C@](C)(Cc3c[nH]c4ccccc34)Nc3nc(-c4ccc([N+](=O)[O-])cc4)cs3)CCCCC2)nc1 [Example 8, (S)-3-(1H-Indol-3-yl)-N-[1-(5-methoxy-pyridin-2-yl)-cyclohexylmethyl]-2-methyl-2-[4-(4-nitro-phenyl)-thiazol-2-ylamino]-propionamide] | 110 to 114 | –
8 | C[C@@](Cc1c[nH]c2ccccc12)(Nc1nc2ccccc2o1)C(=O)NCC1(c2ccccn2)CCCCC1 [Example 9, (S)-2-(Benzooxazol-2-ylamino)-3-(1H-indol-3-yl)-2-m thyl-N-(1-pyridin-2-yl-cyclohxylmethyl)-propionamide] | 198 to 200 | –
9 | C[C@@](Cc1c[nH]c2ccccc12)(Nc1ccncc1)C(=O)NCC1(c2ccccn2)CCCCC1 [Example 10, (S)-3-(1H-Indol-3-yl)-2-methyl-2-(pyridin-4-ylamino)-N-(1-pyridin-2-yl-cyclohexylmethyl)-propionamide] | 180 to 195 | –
10 | C[C@@](Cc1c[nH]c2ccccc12)(Nc1cncc2ccccc12)C(=O)NCC1(c2ccccn2)CCCCC1 [Example 11, (S)-3-(1H-Indol-3-yl)-2-(isoquinolin-4-ylamino)-2-methyl-N-(1-pyridin-2-yl-cyclohexylmethyl)-propionamide] | 98 to 101 | –
11 | C[C@@](Cc1c[nH]c2ccccc12)(Nc1cncnc1)C(=O)NCC1(c2ccccn2)CCCCC1 [Example 12, (S)-3-(1H-Indol-3-yl)-2-methyl-N-(1-pyridin-2-yl-cyclohexylmethyl)-2-(pyrimidin-5-ylamino)-propionamide] | 95 to 98 | –
12 | Cc1cccc(N[C@@](C)(Cc2c[nH]c3ccccc23)C(=O)NCC2(c3ccccn3)CCCCC2)c1 [Example 14, (S)-3-(1H-Indol-3-yl)-2-methyl-N-(1-pyridin-2-yl-cyclohexylmethyl)-2-m-tolylamino-propionamide] | 70 to 75 | –
13 | C[C@@](Cc1c[nH]c2ccccc12)(NCc1ccc([N+](=O)[O-])cc1)C(=O)NCC1(c2ccccn2)CCCCC1 [Example 19, (S)-3-(1H-Indol-3-yl)-2-methyl-2-(4-nitro-benzylamino)-N-(1-pyridin-2-yl-cyclohexylmethyl)-propionamide] | 58 to 60 | –
14 | CC(=O)[C@H]1CC[C@H]2[C@@H]3CCC4=CC(=O)CC[C@]4(C)[C@H]3CC[C@]12C [progesterone, reference compound] | – | effect on proceptivity (positive control) ([2]; 0.5 mg/0.1 ml in corn oil s.c., 4 h before test): maximal
15 | CCCN1CCC[C@@H]2Cc3nc(N)ncc3C[C@H]21 [quinelorane, Quinelorane dihydrochloride, reference compound] | – | lordosis quotient (LQ) versus before administration ([1]; 6.25 μg/kg s.c. in water, 90 min after administration): significantly (P<0.01) increased
